This is an account of results in patent US5360818A, “1,3-dioxane derivatives having protein kinase C inhibitory activity” (Sphinx Pharmaceuticals Corporation, priority 1993, dated 1994).

pIC50: −log10 of the molar value.

Experiment [1] has as its system keratinocytes (NHEK cells). The experiment is described as follows: Human keratinocyte inhibition (3H-thymidine incorporation). It counts as cell-based. From the text:
(§1) Cells were checked microscopically to determine detachment from surfaces, and plates were then harvested with a cell harvester (PHD, Cambridge Technology, Inc.) Filter papers corresponding to wells were placed in scintillation vials and counted to determine the amount of ^3 H-thymidine incorporated by the cells. Test agent response was compared to a positive control of cell wells with culture media only to determine the IC50. IC50 is the concentration of test compound required to inhibit fifty percent of the incorporation of ^3 H-thymidine into proliferating cells not exposed to test agent. Uptake of 3H-thymidine is a standard test for measuring the metabolism of cells. Cells which are actively proliferating take up ^3 H-thymidine whereas cells that are not proliferating take up ^3 H-thymidine at much slower rates or not at all. Test agents that inhibit the uptake of ^3 H-thymidine thus slow the growth of cells.
Proliferating keratinocytes (NHEK cells purchased from Clonetics, Inc., San Diego, Calif.) in second passage were grown in Keratinocyte Growth Medium (KGM) (Clonetics, Inc.) Cells were trypsinized (0.025% trypsin, Clonetics), counted with a hemacytometer (Scientific Products), and seeded at a concentration of 2,500 cells/well in a 96 well microtiter plate. After allowing cells to attach to the surface overnight, the culture medium was aspirated and replaced with 100 μl of fresh KGM. Test agents were evaluated and IC50 's were determined according to the ^3 H-thymidine incorporation procedures described as in Example 18. IC50 is the concentration of test compound required to inhibit fifty percent of the incorporation of ^3 H-thymidine into proliferating cells not exposed to test agent.
For orientation: Uptake of a labelled nucleoside into DNA is a usual measure of proliferation.

Experiment [2] relates to MCF-7 human breast tumor cell line. The experiment is described as follows: Human tumor cell growth inhibition (3H-thymidine incorporation), MCF-7. It is filed as cell-based. Particulars: MCF7, 18 to 24 hrs.
Description: (§2) MCF-7 a human breast tumor cell line and MCF-7/ADR an adriamycin resistant line of MCF-7 cells were obtained from the National Cancer Institute, Frederick, Md. CEM cells (ATCC accession number CCL 119) were obtained from the American Type Culture Collection, Rockville, Md.
(§3) Human tumor cells were trypsinized with 0.05% trypsin (GIBCO), counted with a hemacytometer and seeded at a concentration of 10,000 cells/well in a 96 well microtiter plate. After allowing cells to attach to the surface overnight, the culture medium was aspirated and replaced with 100 μl of fresh medium. Test agents were diluted to determine dose response at 2X final concentration and added in quadruplicate at 100 μl/well to bring the total volume of each well to 200 μl. The microtiter plate was then incubated at 37° C. 5% CO2 overnight for 18 to 24 hrs before ^3 H-thymidine was added at a concentration of 0.5 μCi/well in 50 μl culture medium. The plate was incubated again for 4 hrs under the same conditions as above. Supernatant was then aspirated and 50 μl of 0.05% trypsin (GIBCO) was added to each well.
as §1

Experiment [3] concerns MCF-7/ADR adriamycin resistant line of MCF-7 cells. The experiment is described as follows: Human tumor cell growth inhibition (3H-thymidine incorporation), MCF-7/ADR. Particulars: NCI/ADR-RES, 18 to 24 hrs. It is filed as cell-based.
Description: as §2, §3, §1

Experiment [4] concerns the target T1, cAMP dependent protein kinase (PKA) (Bos taurus, UniProt P00517).
T1 construct: no regulatory subunit
The experiment is described as follows: cAMP dependent protein kinase (PKA) assay. Particulars: 4.3, 43 and 218 μM; 10 min. It counts as biochemical. The method, then: Compounds found to be inhibitors of protein kinase C were tested for inhibitory activity against cAMP dependent protein kinase (PKA). This enzyme, like protein kinase C, plays an important role in cell-cell communication and is activated by a second messenger, cAMP. Secondary screening against PKA is useful for ascertaining the selectivity of the compounds of the invention. The catalytic subunit of PKA (Sigma Chemical Company, St. Louis, Mo.) was mixed with buffer before addition of the inhibitor in dimethylsulfoxide (DMSO). Potential inhibitor compounds were added to the assay in dimethylsulfoxide at three concentrations to give final inhibitor concentrations of 4.3, 43 and 218 μM, respectively. The assay was started by the addition of 32P-ATP and the reaction was allowed to proceed for 10 min before stopping with 25% trichloroacetic acid (TCA) and 1.0 mg/ml bovine serum albumin (BSA). Phosphorylated protein was then isolated by filtration and the radioactivity was counted in a beta scintillation counter.

The next experiment concerns the target protein kinase C. The experiment is described as follows: Protein kinase C inhibition assay (histone H1 phosphorylation). Particulars: rat brain enzyme; histone H1 substrate; 10 min. It counts as biochemical. As for the experimental part: A protein kinase C (PKC) assay is designed to duplicate the in vivo conditions required for protein kinase C function. Therefore, pH, salt and cofactor concentrations are similar to physiologic levels. A lysine rich histone, H1, was used in the assay as the phosphorylation acceptor-proteinbecause it is readily available and serves as a good substrate for protein kinase C. Enzyme was prepared from rat brain and purified to apparent homogeneity as determined by a single band on silver stained SDS-polyacrylamide.
In the screening assay, phosphatidylserine (PS) and DAG were co-sonicated to form unilamellar and multilamellar vesicles. The concentration of lipids in the assay were suboptimal to maximize the detection potential of the assay for inhibitors. Potential inhibitor compounds were added to the assay in dimethylsulfoxide at three concentrations to give final inhibitor concentrations of 4.3, 43 and 218 μM, respectively. The assay was started with the addition of enzyme and stopped after 10 min by the addition of 25% trichloroacetic acid (TCA) and 1.0 mg/ml bovine serum albumin (BSA). The radioactive histone product was retained and washed on glass fiber filters that allow the unreacted ^32 p-ATP to pass through. The amount of phosphorylation was determined by the radioactivity measured in a scintillation counter. Controls were included in every assay to measure background activity in the absence of enzyme, activity in the absence of lipids, and the maximum enzyme activity with saturating levels of the activator lipids.
Results of the protein kinase C assay are shown in Table 3 in the column labeled PKC. Results are shown as IC50, which is the concentration of test compound needed to inhibit 50% of the protein kinase C activity as compared with levels of protein kinase C activity in controls.

Experiment [5] has as its system PMA-stimulated neutrophils. The experiment is described as follows: Neutrophil superoxide anion release assay. It counts as cell-based. Particulars: Homo sapiens, 0.5 h, 37° C., 30 minutes, cytochrome c reduction. The method, then: Neutrophils were isolated form whole blood collected from human volunteers. All reagent materials are obtained from Sigma Chemical Company with the exception of isotonic saline (Travenol Laboratories, Inc., Deerfield, Ill.) and lymphocyte separation medium (Organon Teknika, Durham, N.C.).
Whole blood was drawn and mixed with sodium heparin to a final concentration of 10 units/ml to prevent clotting. An equal volume of 3.0 % dextran in isotonic saline was added, mixed, and allowed to settle for 30 minutes to bind red blood cells (RBC). Supernatant was removed, underlayered with lymphocyte separation medium and centrifuged for 40 min at 400 xg in a centrifuge (Beckman GPR, Norcross, Ga.). The pellet was alternately taken up in 0.2% and 1.6% NaCl to lyse RBCs before washing with Hank's Balanced Salt Solution (HBSS). […]
The neutrophil cell concentration was adjusted to 2×10^6 cells/ml with HBSS before adding 0.8 ml cells to 12×75 mm polypropylene test tubes (Fisher Scientific). […] Optical density (OD) of cytochrome c was read in a spectrophotometer (Shimadzu) at 550 nm. […] Reducing cytochrome c increases its absorbance, and the change in OD of cytochrome c is proportional to the amount of […] produced by PMA stimulation. […] Inhibition is expressed as IC50 μM and is the amount of test compound that will inhibit fifty percent of the PMA-stimulated respiratory outburst, i.e. […] production.

What is called pIC50 is −log10 of the IC50, conventionally taken in molar units. Turning to `CCCCCCCCCCCCCCC[C@H](O)[C@H](CO)NC(=O)OC(C)(C)C` [Compound 11, Tert-Butyl (1S, 2S)-N-[2-hydroxy-1-(hydroxymethyl)heptadecyl]carbamate], the pIC50 in experiment [1] is 6.10; in experiment [2] it was 5.49.

For `CCCCCCCCCCCCCCC[C@@H]1OC(C)(C)OC[C@@H]1N` (relative stereo) [Compound 6, 2,2-Dimethyl-5-amino-4-pentadecyl-1,3-dioxane], the negative logarithm of the IC50 (pIC50) in experiment [3] was 5.26; in experiment [1] it was 5.33; in experiment [2], 5.22; on protein kinase C, 3.92. Moreover, the “inhibitory activity against cAMP dependent protein kinase (PKA)” value (“inhibitory activity” below) in experiment [4] was “no effect on PKA activity”.

As to `CCCCCCCCCCCCCCC[C@@H]1OC(C)(C)OC[C@@H]1N` [Compound 13, Threo-(2S, 3S) -5-Amino-2,2-dimethyl-4-pentadecyl-1,3-dioxane], the pIC50 in experiment [3] was 5.20; in experiment [2], 5.29; against protein kinase C, 3.92. The “inhibitory activity” value in experiment [4] was “no effect on PKA activity”.

As for `CCCCCCCCCCCCCCC[C@@H]1OC(C)(C)OC[C@H]1NC(C)=N` (relative stereo) [Compound 10, Erythro-5-Acetamidino-2,2-dimethyl-4-pentadecyl-1,3-dioxane], in experiment [4], the “inhibitory activity” value was “no effect on PKA activity”. Besides, the pIC50 in experiment [5] is 5.82; against protein kinase C, 4.54.

Regarding `CCCCCCCCCCCCCCCC1OCOCC1N` (stereo not shown) [Compound 24], the pIC50 on protein kinase C is 4.08.

With `CCCCCCCCCCCCCCCC(O)C(CO)[N+](=O)[O-]` (stereo not drawn) [Compound 3, Threo/erythro-2-Nitro-1,3-octadecanediol], the pIC50 in experiment [1] was 5.19.

`CCCCCCCCCCCCCCC[C@@H]1OC(c2ccccc2)OC[C@@H]1N` (stereo partly drawn) [Compound 19, Threo-5-Amino-2-phenyl-4-pentadecyl-1,3-dioxane]: the “inhibitory activity” value in experiment [4] is recorded as “no effect on PKA activity”. Moreover, the pIC50 against protein kinase C was 3.74.

In the case of `CCCCCCCCCCCCCCC[C@@H]1OC(C)(C)OC[C@H]1N` (relative stereo) [Compound 5, Erythro-2,2-dimethyl-5-amino-4-pentadecyl-1,3-dioxane], the pIC50 in experiment [3] is 5.18; in experiment [5], 4.88; in experiment [2] it was 5.11; at protein kinase C, 3.89. The “inhibitory activity” value in experiment [4] was “no effect on PKA activity”.

Take `CCCCCCCCCCCCCCC[C@@H]1OC(C)OC[C@@H]1N` (stereo partly drawn) [Compound 18, Threo-5-Amino-2-methyl-4-pentadecyl-1,3-dioxane]: in experiment [4], the “inhibitory activity” value is “no effect on PKA activity”. Also, the pIC50 against protein kinase C is 4.19.
